Data published in ChEMBL document CHEMBL1201862, “PubChem BioAssay data set” (2004).
Each block holds one compound with its values, some of them ahead of it. Activity calls are given as the source filed them.

Legend:
[1] = Trypanosoma cruzi growth suppression in host cells – NIH3T3 host cells, beta-gal luminescence, confirmation (AID 2044); assay type: functional, cell-based;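 note: intracellular parasites grown in NIH/3T3 mouse fibroblasts as host cells; luminescent beta-galactosidase reporter signal from transgenic T. cruzi replicating inside host cells; inhibitors lower the luminescence signal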
[2] = NIH3T3 cell viability loss – ATP luminescence, mouse fibroblasts, counter-screen, dose response (AID 2010); assay type: functional, cell-based;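 note: cells exposed to compound for about 90 hours before reading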
[3] = Luminescence Cell-Based Dose Retest to Confirm Inhibitors of Cancer Stem Cells. [Related pubchem assays (depositor defined):AID2717, AID2721]; assay type: functional; details: Homo sapiens
[4] = molecular target: Heat shock protein HSP 90-alpha (Homo sapiens, UniProt P07900); assay type: functional, organism-based
[5] = molecular target: T1, Corticotropin-releasing factor receptor 2/Corticotropin-releasing factor-binding protein (Homo sapiens, UniProt P24387+Q13324); assay: Dose Response confirmation of uHTS hits for small molecule antagonists of the CRF-binding protein and CRF-R2 receptor complex.; assay type: functional; details: read-out: IC50_Mean
T1 sequence (Q13324 whole entry): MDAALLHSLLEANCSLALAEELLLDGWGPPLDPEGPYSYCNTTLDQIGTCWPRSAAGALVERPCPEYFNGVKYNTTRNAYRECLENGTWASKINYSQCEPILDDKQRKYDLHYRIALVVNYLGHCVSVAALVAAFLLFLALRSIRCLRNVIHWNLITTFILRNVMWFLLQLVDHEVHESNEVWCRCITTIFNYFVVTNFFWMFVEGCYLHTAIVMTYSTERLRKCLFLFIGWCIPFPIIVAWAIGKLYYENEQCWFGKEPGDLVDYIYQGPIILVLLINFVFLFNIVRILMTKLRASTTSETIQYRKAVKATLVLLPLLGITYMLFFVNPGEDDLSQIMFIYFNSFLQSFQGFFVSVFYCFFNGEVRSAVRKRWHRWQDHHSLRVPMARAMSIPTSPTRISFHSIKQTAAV
T1 sequence (P24387 whole entry): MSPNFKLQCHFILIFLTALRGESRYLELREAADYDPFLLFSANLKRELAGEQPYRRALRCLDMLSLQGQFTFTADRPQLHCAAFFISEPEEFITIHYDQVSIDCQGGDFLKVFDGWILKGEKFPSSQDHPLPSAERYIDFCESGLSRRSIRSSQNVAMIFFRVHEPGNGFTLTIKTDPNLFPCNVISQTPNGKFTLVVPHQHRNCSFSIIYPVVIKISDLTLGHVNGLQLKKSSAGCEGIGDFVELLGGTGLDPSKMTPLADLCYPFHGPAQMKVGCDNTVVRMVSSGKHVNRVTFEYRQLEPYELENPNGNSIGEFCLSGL

[6] = molecular target: T1, Corticotropin-releasing factor receptor 2/Corticotropin-releasing factor-binding protein; assay: activators of CRF receptor 2 with binding protein – uHTS hits, confirmation (AID 602473); assay type: functional; details: read-out: EC50_Mean
[7] = blockers of CRF-binding protein–CRF-R2 complex – cell-based, uHTS hits, 384-well, dose response (AID 651639); assay type: functional, Homo sapiens; details: read-out: IC50_Mean
[8] = molecular target: T2, Microphthalmia-associated transcription factor (Homo sapiens, UniProt O75030); assay: reducers of TRPM1 reporter luminescence, concentration series – cell-based, SK-MEL-5, cherry-picked, set 3, MITF inhibitor project, dose response (AID 493073); assay type: functional;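 note: SK-MEL-5 melanoma cells with luciferase driven by the MITF target TRPM1 promoter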
T2 sequence (O75030 whole entry): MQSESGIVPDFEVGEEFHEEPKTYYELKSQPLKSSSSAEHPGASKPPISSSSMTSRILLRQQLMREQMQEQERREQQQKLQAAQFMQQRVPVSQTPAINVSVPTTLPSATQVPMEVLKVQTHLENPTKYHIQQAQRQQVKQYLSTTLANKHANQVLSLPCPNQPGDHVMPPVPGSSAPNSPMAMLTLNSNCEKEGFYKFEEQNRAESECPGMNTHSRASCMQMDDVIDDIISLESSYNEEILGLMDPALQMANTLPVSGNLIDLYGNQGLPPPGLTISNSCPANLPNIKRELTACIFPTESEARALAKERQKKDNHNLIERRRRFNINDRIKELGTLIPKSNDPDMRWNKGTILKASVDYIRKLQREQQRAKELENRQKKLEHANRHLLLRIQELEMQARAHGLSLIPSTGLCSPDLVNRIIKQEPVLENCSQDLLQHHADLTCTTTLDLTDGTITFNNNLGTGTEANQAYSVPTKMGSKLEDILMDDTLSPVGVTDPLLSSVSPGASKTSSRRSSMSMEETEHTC

Cytochrome P450 2C19 = Cytochrome P450 2C19 (Homo sapiens, UniProt P33261); assay: Cytochrome panel assay with activity outcomes. Panel member name: p450-cyp2c19 Compounds with AC50 equal or less than 10 uM are considered active; assay type: functional
Cytochrome P450 3A4 = Cytochrome P450 3A4 (Homo sapiens, UniProt P08684);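 note: CYP3A4 tested as one member of a cytochrome P450 panel screen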
Cytochrome P450 2C9 = Cytochrome P450 2C9 (Homo sapiens, UniProt P11712)
BJ [9] = assay: BJ-TERT fibroblast viability loss – cell-based, RAS-independent, luminescence, dose response (AID 1933); assay type: functional; details: Homo sapiens
BJ [10] = assay: cells; assay type: functional, cell-based; details: Homo sapiens
BJ [11] = assay: BJ-TERT-LT-ST fibroblast viability loss – cell-based, RAS-independent, luminescence, dose response (AID 1935); assay type: functional; details: Homo sapiens;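 note: BJ fibroblasts immortalized with TERT plus LT and ST oncogenes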
[12] = DRD fibroblast viability loss – cell-based, non-viral oncogenic, luminescence, dose response (AID 1934); assay type: functional; details: Homo sapiens
Cytochrome P450 1A2 = molecular target: T3, Cytochrome P450 1A2 (Homo sapiens, UniProt P05177);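 note: PubChem cytochrome P450 panel assay, CYP1A2 panel member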
T3 sequence (P05177 whole entry): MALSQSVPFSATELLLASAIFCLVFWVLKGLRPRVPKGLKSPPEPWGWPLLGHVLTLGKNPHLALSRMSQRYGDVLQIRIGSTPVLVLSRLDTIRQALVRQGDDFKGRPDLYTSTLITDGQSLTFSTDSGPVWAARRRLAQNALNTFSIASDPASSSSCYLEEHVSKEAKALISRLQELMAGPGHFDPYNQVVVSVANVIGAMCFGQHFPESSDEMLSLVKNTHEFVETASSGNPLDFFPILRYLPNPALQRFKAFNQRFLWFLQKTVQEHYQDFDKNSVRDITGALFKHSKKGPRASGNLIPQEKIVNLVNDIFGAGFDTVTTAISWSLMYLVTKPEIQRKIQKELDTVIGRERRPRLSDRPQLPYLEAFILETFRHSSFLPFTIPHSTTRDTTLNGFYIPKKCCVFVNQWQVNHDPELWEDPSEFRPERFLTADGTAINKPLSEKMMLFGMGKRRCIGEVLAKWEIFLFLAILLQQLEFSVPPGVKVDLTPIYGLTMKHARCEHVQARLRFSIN

[13] = off-target signal loss in HeLa-CEM21 co-culture – HeLa F-luc CTL cells, cherry-picked, counter-screen for HIV-1 Env fusion inhibitor project, dose response (AID 652040); assay type: functional, cell-based;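 note: potency for signal decrease marking cytotoxic or nonspecific inhibition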
[14] = HIV-1 AD8 envelope cell-cell fusion blockers – cherry-pick, dose response (AID 652062); assay type: functional, cell-based;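 note: luciferase signal from cell-cell fusion driven by HIV-1 clade B AD8 Env; potency is for inhibitors of fusion seen as a drop in luminescence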
Cytochrome P450 2D6 = Cytochrome P450 2D6 (Homo sapiens, UniProt P10635);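 note: CYP2D6 member of a cytochrome P450 panel assay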
Paired box protein Pax-8 = Paired box protein Pax-8 (Homo sapiens, UniProt Q06710); assay: PAX8 transcriptional activity inhibition in RMG-I – RMG-I cells, luciferase, cherry-pick, dose response (AID 687027); assay type: functional, cell-based;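 note: luciferase reporter driven by Pax8 target thyroperoxidase promoter measured by SteadyGlo luminescence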
[15] = blockers of HIV-1 envelope-mediated cell-cell fusion – cherry-pick, dose response (AID 652057); assay type: functional, cell-based
[16] = blockers of HIV-1 ZM109 envelope-driven cell-cell fusion – HeLa effector, CEM target cells, luciferase, cherry-pick, dose response (AID 652058); assay type: functional, cell-based;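 note: luciferase signal from HIV-1 Env mediated cell-cell fusion of effector and target cells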

Cytochrome P450 2C9, sequence (P11712 whole entry): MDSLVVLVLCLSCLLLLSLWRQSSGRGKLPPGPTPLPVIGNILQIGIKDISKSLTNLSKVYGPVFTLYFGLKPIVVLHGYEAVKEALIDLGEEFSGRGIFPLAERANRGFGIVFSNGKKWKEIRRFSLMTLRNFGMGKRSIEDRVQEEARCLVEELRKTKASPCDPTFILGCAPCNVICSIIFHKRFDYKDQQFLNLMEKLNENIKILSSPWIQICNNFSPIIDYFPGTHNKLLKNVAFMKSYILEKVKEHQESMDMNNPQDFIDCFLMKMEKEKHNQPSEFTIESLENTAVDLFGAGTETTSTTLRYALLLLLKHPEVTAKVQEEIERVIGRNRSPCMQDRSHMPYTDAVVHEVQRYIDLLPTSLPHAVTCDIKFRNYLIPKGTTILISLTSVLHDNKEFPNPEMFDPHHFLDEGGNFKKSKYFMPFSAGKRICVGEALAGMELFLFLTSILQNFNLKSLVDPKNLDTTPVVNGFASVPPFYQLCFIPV
Cytochrome P450 2C19, sequence (P33261 whole entry): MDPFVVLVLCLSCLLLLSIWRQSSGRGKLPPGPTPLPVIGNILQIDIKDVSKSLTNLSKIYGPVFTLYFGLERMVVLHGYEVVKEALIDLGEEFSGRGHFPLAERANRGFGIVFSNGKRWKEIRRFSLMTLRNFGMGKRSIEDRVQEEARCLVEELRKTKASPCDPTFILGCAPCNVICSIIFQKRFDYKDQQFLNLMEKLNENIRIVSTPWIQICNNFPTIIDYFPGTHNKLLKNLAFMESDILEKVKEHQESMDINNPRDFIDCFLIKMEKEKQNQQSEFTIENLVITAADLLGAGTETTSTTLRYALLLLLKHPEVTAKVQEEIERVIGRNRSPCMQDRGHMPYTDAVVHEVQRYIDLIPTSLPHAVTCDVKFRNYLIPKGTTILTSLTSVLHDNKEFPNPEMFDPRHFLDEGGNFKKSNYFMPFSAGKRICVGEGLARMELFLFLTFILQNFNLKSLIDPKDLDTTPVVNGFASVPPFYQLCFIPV
Cytochrome P450 2D6, sequence (P10635 whole entry): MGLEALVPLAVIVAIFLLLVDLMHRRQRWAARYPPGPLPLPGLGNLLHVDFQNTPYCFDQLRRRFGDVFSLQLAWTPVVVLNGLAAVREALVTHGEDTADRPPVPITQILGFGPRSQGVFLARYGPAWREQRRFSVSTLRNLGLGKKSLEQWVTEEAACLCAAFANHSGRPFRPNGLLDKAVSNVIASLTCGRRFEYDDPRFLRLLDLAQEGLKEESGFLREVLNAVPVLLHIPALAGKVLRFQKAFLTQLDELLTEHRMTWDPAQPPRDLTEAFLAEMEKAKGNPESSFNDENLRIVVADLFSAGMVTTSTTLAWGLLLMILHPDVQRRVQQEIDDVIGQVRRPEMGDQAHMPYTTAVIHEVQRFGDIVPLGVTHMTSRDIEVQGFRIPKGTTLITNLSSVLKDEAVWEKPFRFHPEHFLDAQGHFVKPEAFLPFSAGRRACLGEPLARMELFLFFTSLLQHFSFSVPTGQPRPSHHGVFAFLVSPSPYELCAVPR
Cytochrome P450 3A4, sequence (P08684 whole entry): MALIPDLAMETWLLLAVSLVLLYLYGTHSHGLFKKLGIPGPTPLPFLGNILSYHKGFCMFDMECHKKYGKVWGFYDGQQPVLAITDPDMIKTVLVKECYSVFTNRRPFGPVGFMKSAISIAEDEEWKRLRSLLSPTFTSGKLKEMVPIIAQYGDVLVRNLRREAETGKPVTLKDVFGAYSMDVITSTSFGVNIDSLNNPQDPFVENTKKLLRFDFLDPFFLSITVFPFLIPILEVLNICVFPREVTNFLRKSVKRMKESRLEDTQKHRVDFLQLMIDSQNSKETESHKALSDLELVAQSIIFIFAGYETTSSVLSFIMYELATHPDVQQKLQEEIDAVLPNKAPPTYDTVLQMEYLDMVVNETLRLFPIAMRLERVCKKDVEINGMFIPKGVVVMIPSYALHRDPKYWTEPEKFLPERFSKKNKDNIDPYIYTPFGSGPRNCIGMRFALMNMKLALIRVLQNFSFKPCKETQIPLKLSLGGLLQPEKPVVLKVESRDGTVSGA
Paired box protein Pax-8, sequence (Q06710 whole entry, the tested form may be a part): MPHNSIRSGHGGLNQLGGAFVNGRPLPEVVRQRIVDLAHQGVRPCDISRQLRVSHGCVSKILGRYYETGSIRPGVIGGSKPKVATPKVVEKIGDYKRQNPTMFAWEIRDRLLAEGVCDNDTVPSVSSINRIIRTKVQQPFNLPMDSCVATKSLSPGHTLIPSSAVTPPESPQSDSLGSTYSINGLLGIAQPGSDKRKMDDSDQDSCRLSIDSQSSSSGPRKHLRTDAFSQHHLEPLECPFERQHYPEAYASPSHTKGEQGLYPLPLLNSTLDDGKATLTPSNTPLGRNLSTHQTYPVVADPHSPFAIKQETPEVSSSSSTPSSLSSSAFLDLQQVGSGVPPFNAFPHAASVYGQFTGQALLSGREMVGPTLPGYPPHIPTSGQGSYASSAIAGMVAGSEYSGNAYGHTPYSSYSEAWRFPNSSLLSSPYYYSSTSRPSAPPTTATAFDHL

SMILES: CCc1ccc(-c2cc(C(=O)N3N=C(C(F)F)CC3(O)C(F)F)c3ccccc3n2)cc1 (centres undefined)
EC50 [1]: 2.9 µM (active) | EC50 [2]: > 60 µM (not active) | AC50 [3]: 5.74 µM (active) | AC50 [4]: 4.04 µM (active)

IC50 [5]: 12 µM (active) | EC50 [6]: > 53 µM (inactive) | IC50 [7]: 14.5 µM (active)
SMILES: COc1ccc([N+](=O)[O-])cc1NCc1ccccc1

SMILES: Cc1ccc2c(C(=O)CCl)c(C)[nH]c2c1
EC50 [1]: 3.94 µM (active) | EC50 [2]: 11.3 µM (active) | AC50 [8]: 8.17 µM (active)

IC50 [5]: 3.26 µM (active) | EC50 [6]: > 53 µM (inactive) | IC50 [7]: > 20 µM (inactive)
SMILES: CCN(CC)S(=O)(=O)c1ccc(Cl)c(NC(=O)c2cc(Cl)cc(Cl)c2)c1

AC50 (Cytochrome P450 2C19): inconclusive | AC50 (Cytochrome P450 3A4): 15.8 µM (inconclusive) | AC50 (Cytochrome P450 2C9): inconclusive
SMILES: C/C(Cl)=C\Cn1c(N2CCCC2)nc2c1c(=O)[nH]c(=O)n2C

SMILES: O=C(CCl)Nc1ccc(Oc2cnc3ccccc3n2)cc1
EC50 (BJ [9]): 6.36 µM (active) | EC50 (BJ [10]): > 150 µM (not active) | EC50 (BJ [11]): > 75 µM (inconclusive) | EC50 [12]: 16.9 µM (active) | AC50 (Cytochrome P450 1A2): 8.91 µM (inconclusive) | AC50 (Cytochrome P450 2C9): inconclusive

SMILES: Cc1nc2ccccc2n1CC(=O)NCc1ccccc1
AC50 [13]: > 70 µM (inactive) | AC50 [14]: 16.8 µM (active)

AC50 (Cytochrome P450 2D6): 15.8 µM (inconclusive) | AC50 (Cytochrome P450 2C9): inconclusive
SMILES: C=CCNc1nc(SCC=C)nc2ccsc12

AC50 (Cytochrome P450 2C19; read-out: AC50): 8.91 µM (inconclusive) | AC50 (Cytochrome P450 2C9): inconclusive
SMILES: Cc1nc(-c2cccnc2)sc1C(=O)Nc1ccc(F)cc1F

AC50 (Cytochrome P450 2C9): inconclusive
SMILES: CC1CCN(C(=O)C2CCN(S(=O)(=O)c3cccc4nonc34)CC2)CC1

AC50 (Cytochrome P450 2C19; read-out: AC50): 7.94 µM (inconclusive) | AC50 (Cytochrome P450 2D6): 31.6 µM (inconclusive) | AC50 (Cytochrome P450 2C9): inconclusive
SMILES: CCOc1ccc(S(=O)(=O)NCc2ccc(F)cc2)c2cccnc12

IC50 [5]: 5.83 µM (active) | EC50 [6]: > 53 µM (inactive) | IC50 [7]: > 20 µM (inactive)
SMILES: CC(=O)N(C(C)=O)c1cccc(N(Cc2ccccc2)Cc2ccccc2)c1

AC50 [8]: 4.3 µM (active) | AC50 (Paired box protein Pax-8): 6.29 µM (active)
SMILES: COc1ccccc1NS(=O)(=O)c1cccc(C(=O)N/N=C/c2ccc([N+](=O)[O-])o2)c1

IC50 [5]: < 0.368 µM (active) | EC50 [6]: > 53 µM (inactive) | IC50 [7]: > 20 µM (inactive)
SMILES: COc1cccc2ccc(CC(O)(c3ccccc3)c3ccccc3)nc12

SMILES: C[C@H](CO)N1C[C@H](C)[C@H](CN(C)Cc2ccc(F)cc2)OCc2ccccc2-c2ccccc2C1=O
AC50 [15]: 557 nM (active) | AC50 [16]: 1.39 µM (active) | AC50 [14]: 3.77 µM (active)

SMILES: O=C(Cc1ccccc1)N[C@@H]1C=C[C@H](CC(=O)N2CCCCC2)O[C@@H]1CO
AC50 [16]: 28.7 µM (active)
